Experimental data: ChEMBL document CHEMBL1159225, “Oceanapamine, a sesquiterpene alkaloid from the Philippine sponge Oceanapia sp” (J Nat Prod, 1995)
Calls of active or inactive are those of the source. The rule behind the calls is not given here.

Key:
Assay type in all cases: functional, organism-based
[1] = test system: Bacillus subtilis; assay: Antimicrobial activity against Bacillus subtilis at 25 ug/disk by standard disk assay
[2] = test system: Escherichia coli; assay: Antimicrobial activity against Escherichia coli at 25 ug/disk by standard disk assay
[3] = test system: Staphylococcus aureus; assay: Antimicrobial activity against Staphylococcus aureus at 50 ug/disk by standard disk assay
[4] = test system: Candida albicans; assay: Antifungal activity against Candida albicans at 50 ug/disk by standard disk assay
[5] = test system: Pseudomonas aeruginosa; assay: Antimicrobial activity against Pseudomonas aeruginosa at 100 ug/disk by standard disk assay

SMILES	Activity [1]	Activity [2]	Activity [3]	Activity [4]	Activity [5]
C=C1CCCC(C)(C)[C@H]1CC/C(C)=C/Cc1nc[nH]c1CCN	Active	Active	Active	Active	Active
C=C1CCCC(C)(C)[C@H]1CC/C(C)=C/Cc1ncn2c1CCNC2=O	inactive	inactive	inactive	inactive	inactive
